Results reported in US20170290814A1, “METHODS OF TREATMENT OF CHOLESTASIS AND FIBROSIS” (GENFIT, priority 2016, published 2017).

System: TGFβ1-induced expression of α-SMA protein in NHLF
Assay: α-SMA ELISA in TGFβ1-activated normal human lung fibroblasts
Assay type: cell-based
Conditions: TGFβ1 1 ng/ml, 48 h
Experimental: Serum-deprived NHLF were preincubated for 1 hour with RM-5061 before the activation with the profibrogenic cytokine TGFβ1 (1 ng/ml). After 48 hours of incubation, the expression of α-SMA was measured by ELISA. The obtained values were transformed into percentage inhibition over TGFβ1 control. Data are presented as mean (quadruplicates)±standard error of the mean (SEM). Statistical analyses were performed by kruskal-Wallis test followed by Dunn's multiple comparison tests, using GraphPad Prism 5.02 software. [*: p<0.05; **: p<0.01; ***: p<0.001 (comparison versus TGFβ1 1 ng/mL group)]. The curve fitting and the calculation of half maximal inhibitory concentration (IC50) were performed with XLFit software 5.3.1.3.
Cpd.5 was added to serum-deprived lung fibroblasts (NHLF) 1 hour before the activation with TGFβ1 (1 ng/ml). After 48 hours of incubation, the expression of α-SMA was measured by ELISA. The obtained values were transformed into percentage inhibition over TGFβ1 control. Data are presented as mean (triplicates)±standard deviation (SD). Statistical analyses were performed by one-way ANOVA followed by Bonferroni post-hoc tests, using Sigma Plot 11.0 software. [*: p<0.05; **: p<0.01; ***: p<0.001 (comparison versus TGFβ1 1 ng/mL group)].
The Normal Human Lung Fibroblasts (NHLF) (Lonza) were cultured in Fibroblast Basal Medium (FBM) (Lonza cat #CC-3131) that was supplemented with FGM-2 SingleQuots™ Kit (Lonza cat #CC-3132). The complete medium contains 2% fetal bovine serum. For the activation experiments with TGFβ1, the NHLF were plated at a density of 5×10^3 cells per well in 96-well plates. The next day, cell-culture medium was removed, and cells were washed with PBS (Invitrogen cat #14190). NHLF were deprived for 24 hours in serum-free, insulin-free and rhFGF-B-free medium. […]
The level of α-SMA was measured using a Sandwich ELISA. […]

| SMILES | effect on TGFβ1-induced α-SMA in NHLF | IC50 α-SMA in NHLF (compared with IC50 in human HSC) |
| --- | --- | --- |
| CC(C)(C)[C@H](N)C(=O)Oc1ccccc1C(=O)Nc1ncc([N+](=O)[O-])s1 [RM-5061, (S)-2-(5-nitrothiazol-2-ylcarbamoyl)phenyl 2-amino-3,3-dimethylbutanoate] | inhibits | comparable IC50 |
| [2H]C([2H])([2H])C(=O)Oc1ccccc1C(=O)Nc1ncc([N+](=O)[O-])s1 [Cpd.5, 2-[(5-nitro-1,3-thiazol-2-yl)carbamoyl]phenyl (d3)ethanoate] | inhibits | – |
